Source: patent US20080027014A1, “Novel SGLT inhibitors” (Tanabe Seiyaku Co., Ltd., priority 2006, published 2008)

Key:
[1] = molecular target: T1, human SGLT2 (Homo sapiens, UniProt P31639); assay: Assay for SGLT2 inhibition (14C-AMG uptake in CHOK1 cells expressing human SGLT2); format: cell-based; conditions: CHOK1 cells expressing human SGLT2, 14C-AMG uptake 0.5 mM, 2 hours at 37° C.
T1 construct: expressed in transfected cells; host or cells: CHOK1 cells (kept under Geneticin selection)
T1 sequence (P31639 1-672): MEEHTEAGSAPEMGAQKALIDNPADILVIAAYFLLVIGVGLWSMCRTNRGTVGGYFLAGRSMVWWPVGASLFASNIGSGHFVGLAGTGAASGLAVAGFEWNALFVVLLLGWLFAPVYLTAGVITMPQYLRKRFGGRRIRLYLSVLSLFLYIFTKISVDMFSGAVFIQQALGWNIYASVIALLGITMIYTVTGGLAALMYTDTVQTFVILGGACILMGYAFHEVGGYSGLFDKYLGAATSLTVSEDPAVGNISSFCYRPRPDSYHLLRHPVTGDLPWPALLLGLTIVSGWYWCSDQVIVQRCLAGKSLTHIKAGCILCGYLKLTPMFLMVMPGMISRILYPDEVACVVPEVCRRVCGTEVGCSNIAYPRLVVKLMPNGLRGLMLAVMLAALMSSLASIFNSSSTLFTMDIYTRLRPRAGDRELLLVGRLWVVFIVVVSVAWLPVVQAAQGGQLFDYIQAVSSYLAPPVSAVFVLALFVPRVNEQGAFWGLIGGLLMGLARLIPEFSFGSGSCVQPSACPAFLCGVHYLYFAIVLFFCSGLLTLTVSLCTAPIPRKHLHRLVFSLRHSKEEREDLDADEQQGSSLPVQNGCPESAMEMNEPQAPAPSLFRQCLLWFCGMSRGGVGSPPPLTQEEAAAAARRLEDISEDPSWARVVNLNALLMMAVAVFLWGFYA
Protocol: 1. Assay for SGLT2 Inhibition
Compounds described in the above examples were used for the SGLT2 inhibition assay.
CHOK1 cells expressing human SGLT2 were seeded in 24-well plates at a density of 400,000 cells/well in F-12 nutrient mixture (Ham's F-12) containing 10% fetal bovine serum, 400 μg/ml Geneticin, 50 units/ml sodium penicillin G (Gibco-BRL) and 50 μg/ml streptomycin sulfate. After 2 days of culture at 37° C. in a humidified atmosphere containing 5% CO2, cells were washed once with the assay buffer (137 mM NaCl, 5 mM KCl, 1 mM CaCl2, 1 mM MgCl2, 50 mM Hepes, and 20 mM Tris, pH 7.4) and incubated with 250 μl of the buffer containing test compounds for 10 min at 37° C. Test compounds were dissolved in DMSO. The final concentration of DMSO was 0.5%. The transport reaction was initiated by addition of 50 μl [^14C]-methyl-α-D-glucopyranoside (^14C-AMG) solution (final concentration, 0.5 mM). After incubation for 2 hours at 37° C., the uptake was stopped by aspiration of the incubation mixture, the cells were washed three times with ice-cold PBS. Then, cells were solubilized with 0.3 N NaOH and aliquots were taken for determination of radioactivity by a liquid scintillation counter. Nonspecific AMG uptake was defined as that which occurred in the presence of 100 μM of phlorizin, a specific inhibitor of sodium-dependent glucose cotransporter. Specific uptake was normalized for the protein concentrations measured by the method of Bradford. The 50% inhibitory concentration (IC50) values were calculated from dose-response curves by least square method.

[2] = test system: male Sprague-Dawley (SD) rats; assay: Urinary glucose excretion test in rats; format: in vivo, rat; conditions: 30 mg/kg by oral gavage, urine collected for 24 hours, daily amount of glucose excreted per individual
Protocol: 2. Urinary Glucose Excretion Test in Rats
Compounds described in the above examples were used for the Urinary glucose excretion test in rats.
6-week-old male Sprague-Dawley (SD) rats were housed in individual metabolic cages with free access to food and water from 2 days prior to the experiment. On the morning of the experiment, rats were administered vehicle (0.2% carboxymethyl cellulose solution containing 0.2% Tween80) or test compounds (30 mg/kg) by oral gavage at a volume of 10 ml/kg. Then, urine of the rat was collected for 24 hours, and the urine volume was measured. Subsequently, the glucose concentration in urine was quantified using the enzymatic assay kit and the daily amount of glucose excreted in urine per individual was calculated.

[3] = test system: diabetic animal models; conditions: continuous subcutaneous administration; cited from earlier work

IC50 [1] [nM] | SMILES | also measured
180 | CCc1ccc(Cc2cn([C@@H]3S[C@H](CO)[C@@H](O)[C@H](O)[C@H]3O)c3ccccc23)cc1 [Example 1, 3-(4-Ethylphenylmethyl)-1-(5-thio-β-D-glucopyranosyl)indole] | 
21 | CCc1ccc(Cc2cn([C@@H]3S[C@H](CO)[C@@H](O)[C@H](O)[C@H]3O)c3cccc(Cl)c23)cc1 [Example 2, 4-Chloro-3-(4-ethylphenylmethyl)-1-(5-thio-β-D-glucopyranosyl)indole] | Urinary glucose [2]: B (2400 mg>B≧2000 mg)
5.3 | OC[C@H]1O[C@@H](c2ccc(Cl)c(Cc3cc4ccccc4s3)c2)[C@H](O)[C@@H](O)[C@H]1F [Example 5, 3-(Benzo[b]thiophen-2-ylmethyl)-4-chloro-1-(4-fluoro-4-deoxy-β-D-galactopyranosyl)benzene] | melting point: 153 to 154 °C; Urinary glucose [2]: A (A≧2400 mg)
31 | O[C@@H]1[C@@H](O)[C@H](c2ccc(Cl)c(Cc3ccc(-c4ccccc4)s3)c2)O[C@H](CF)[C@H]1O [Example 6, 4-Chloro-3-(5-phenyl-2-thienylmethyl)-1-(6-fluoro-6-deoxy-β-D-glucopyranosyl)benzene] | 
41 | OC[C@H]1S[C@@H](n2cc(Cc3ccc4occc4c3)c3c(Cl)cccc32)[C@H](O)[C@@H](O)[C@@H]1O [Example 8] | 
22 | CSc1ccc(Cc2cn([C@@H]3S[C@H](CO)[C@@H](O)[C@H](O)[C@H]3O)c3cccc(Cl)c23)cc1 [Example 10] | 
110 | OC[C@H]1S[C@@H](n2cc(Cc3ccc(Cl)cc3)c3c(Cl)cccc32)[C@H](O)[C@@H](O)[C@@H]1O [Example 13] | 
97 | OC[C@H]1S[C@@H](n2cc(Cc3ccc(Br)cc3)c3c(Cl)cccc32)[C@H](O)[C@@H](O)[C@@H]1O [Example 14] | 
15 | COc1ccc(Cc2cn([C@@H]3S[C@H](CO)[C@@H](O)[C@H](O)[C@H]3O)c3cccc(Cl)c23)cc1 [Example 15] | 
130 | OC[C@H]1S[C@@H](n2cc(Cc3ccc4ccccc4c3)c3c(Cl)cccc32)[C@H](O)[C@@H](O)[C@@H]1O [Example 16] | 
63 | OC[C@H]1S[C@@H](n2cc(Cc3ccc(I)cc3)c3c(F)cccc32)[C@H](O)[C@@H](O)[C@@H]1O [Example 17] | 
190 | OC[C@H]1S[C@@H](n2cc(Cc3ccc4occc4c3)c3c(F)cccc32)[C@H](O)[C@@H](O)[C@@H]1O [Example 18] | 
46 | CCOc1ccc(Cc2cn([C@@H]3S[C@H](CO)[C@@H](O)[C@H](O)[C@H]3O)c3cccc(C)c23)cc1 [Example 19] | 
180 | Cc1cccc2c1c(Cc1ccc(Cl)cc1)cn2[C@@H]1S[C@H](CO)[C@@H](O)[C@H](O)[C@H]1O [Example 20] | 
210 | N#Cc1cccc(-c2ccc(Cc3cn([C@@H]4S[C@H](CO)[C@@H](O)[C@H](O)[C@H]4O)c4cccc(Cl)c34)s2)c1 [Example 22] | 
170 | OC[C@H]1S[C@@H](n2cc(Cc3ccc(Br)s3)c3c(Cl)cccc32)[C@H](O)[C@@H](O)[C@@H]1O [Example 23] | 
67 | CCc1ccc(Cc2cn([C@@H]3S[C@H](CO)[C@@H](O)[C@H](O)[C@H]3O)c3cccc(Cl)c23)s1 [Example 25] | 
190 | OC[C@H]1S[C@@H](n2cc(Cc3ccc(-c4ccc(F)nc4)s3)c3c(Cl)cccc32)[C@H](O)[C@@H](O)[C@@H]1O [Example 26] | 
19 | Cc1cccc2c1c(Cc1ccc(C3CC3)cc1)cn2[C@@H]1S[C@H](CO)[C@@H](O)[C@H](O)[C@H]1O [Example 28] | 
54 | OC[C@H]1S[C@@H](n2cc(Cc3ccc(OC(F)F)cc3)c3c(Cl)cccc32)[C@H](O)[C@@H](O)[C@@H]1O [Example 30] | 
150 | OC[C@H]1S[C@@H](n2cc(Cc3ccc(-c4cccs4)cc3)c3c(F)cccc32)[C@H](O)[C@@H](O)[C@@H]1O [Example 31] | 
10 | OC[C@H]1S[C@@H](n2cc(Cc3ccc(-c4ccccn4)s3)c3c(Cl)cccc32)[C@H](O)[C@@H](O)[C@@H]1O [Example 33] | 
35 | OC[C@H]1S[C@@H](n2cc(Cc3ccc(C(F)F)cc3)c3c(Cl)cccc32)[C@H](O)[C@@H](O)[C@@H]1O [Example 34] | 
17 | OC[C@H]1O[C@@H](c2ccc(Cl)c(Cc3cc4ccccc4s3)c2)[C@H](O)[C@@H](O)[C@H]1O [Example 35] | 
120 | CCc1ccc(Cc2cn([C@@H]3O[C@H](CO)[C@@H](F)[C@H](O)[C@H]3O)c3ncccc23)cc1 [Example 36] | 
 | O=C(CCc1ccc(O)cc1)c1c(O)cc(O)cc1O[C@@H]1O[C@H](CO)[C@@H](O)[C@H](O)[C@H]1O [phlorizin] | blood glucose level [3]: normalized
